The source made the active and inactive calls. The calls are words filed in the database; no cut-off is given here.
Key:
[1] = molecular target: T1, Mitogen-activated protein kinase 1 (Homo sapiens, UniProt P28482); assay: Binding affinity to ATP-binding site of ERK2 (unknown origin) by surface plasmon resonance method
[2] = molecular target: T1, Mitogen-activated protein kinase 1; assay: Binding affinity to ATP-binding site of ERK2 (unknown origin) assessed as reduction in signal intensity by 19F NMR spectroscopy; set-up: concentration or dose not given beside the values
[3] = molecular target: T1, Mitogen-activated protein kinase 1; assay: Binding affinity to ATP-binding site of ERK2 (unknown origin) assessed as reduction in signal intensity in presence of FR180204 at 1 mM by competitive surface plasmon resonance method; set-up: scale not given: the % may be the effect or the level left
[4] = molecular target: T1, Mitogen-activated protein kinase 1; assay: Binding affinity to ATP-binding site of ERK2 (unknown origin) assessed as reduction in signal intensity in absence of competitor by 19F NMR spectroscopy; set-up: concentration or dose not given beside the values
[5] = molecular target: T1, Mitogen-activated protein kinase 1; assay: Binding affinity to ATP-binding site of ERK2 (unknown origin) assessed as reduction in signal intensity in presence of L100919 at 1 mM by competitive surface plasmon resonance method; set-up: scale not given: the % may be the effect or the level left
[6] = molecular target: T1, Mitogen-activated protein kinase 1; assay: Binding affinity to ATP-binding site of ERK2 (unknown origin) assessed as reduction in signal intensity in presence of L100919 by competitive 19F NMR spectroscopy; set-up: concentration or dose not given beside the values
[7] = molecular target: T1, Mitogen-activated protein kinase 1; assay: Binding affinity to ATP-binding site of ERK2 (unknown origin) assessed as reduction in signal intensity in presence of […] by competitive 19F NMR spectroscopy; set-up: concentration or dose not given beside the values
[8] = molecular target: T1, Mitogen-activated protein kinase 1; assay: Binding affinity to ATP-binding site of ERK2 (unknown origin) by isothermal titration calorimetry

T1 sequence (P28482 whole entry): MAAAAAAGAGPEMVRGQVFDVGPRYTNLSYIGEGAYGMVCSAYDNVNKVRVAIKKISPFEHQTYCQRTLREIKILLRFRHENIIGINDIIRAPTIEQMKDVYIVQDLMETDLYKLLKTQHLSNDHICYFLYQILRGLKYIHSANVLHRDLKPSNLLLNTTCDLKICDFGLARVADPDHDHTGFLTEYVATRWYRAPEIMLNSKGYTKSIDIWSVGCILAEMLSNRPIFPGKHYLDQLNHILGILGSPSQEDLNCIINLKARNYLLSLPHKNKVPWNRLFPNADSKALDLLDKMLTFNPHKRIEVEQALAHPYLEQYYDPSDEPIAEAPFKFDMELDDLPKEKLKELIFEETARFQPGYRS

`N[C@H]1CC[C@H](N2Cc3c(F)cccc3C2=O)CC1` was tested, and the Kd [1] was 495 µM, the Activity [2] was 41% and the Activity [3] was 15%. For the same compound, the Activity [4] was 9% and the Activity [5] was 12%.

For `CC(C)(C)OC(=O)N[C@H]1CCN(c2ncccc2[N+](=O)[O-])C1`, the Kd [1] was > 1000 µM, the Activity [2] was 20% and the Activity [4] was 2%.

`Nc1cnc2c(C(F)(F)F)cnn2c1` showed an Activity [2] of 33%, an Activity [3] of 23% and an Activity [4] of -12%. For the same compound, the Activity [5] was 19%.

In the case of `CCOc1cc(N)cc(C(F)(F)F)c1`, the Kd [1] is reported as > 1000 µM and the Activity [5] is reported as 17%.

`COCCCNc1ccc(F)cc1[N+](=O)[O-]` was tested, and the Activity [2] was 29%, the Activity [6] was 14% and the Activity [7] was 10%. The Activity [4] was 15%.

In the case of `NCc1cn(Cc2ccccc2F)cn1`, the Activity [2] is reported as “inactive”.

`FC(F)(F)c1ccnc(NC2CCNCC2)c1` gave a Kd [1] of 989 µM, an Activity [2] of 11% and an Activity [3] of 20%. It also gave an Activity [4] of 9%.

For `Fc1ccc2[nH]cc(C3CCCNC3)c2c1` (centres undefined), the Kd [1] was > 1000 µM, the Activity [2] was 10% and the Activity [6] was 9%. It also gave an Activity [7] of 9% and an Activity [4] of 20%.

For `O=C1c2ccc(F)cc2CN1[C@H]1CCCNC1`, the Kd [1] was > 1000 µM, the Activity [2] was 66% and the Activity [6] was 8%. For the same compound, the Activity [7] was 2% and the Activity [4] was 67%.

With `NC1CCN(c2cccc(F)c2[N+](=O)[O-])CC1` the Kd [1] was > 1000 µM, the Activity [2] was 39% and the Activity [4] was 10%.

With `CC(C)(C)OC(=O)N1CCC(Cc2cccc(C(F)(F)F)c2)(C(=O)O)CC1` the Kd [1] was > 1000 µM, the Activity [2] was 26% and the Activity [6] was 25%. The Activity [7] was 23% and the Activity [4] was 30%.

With `O=C1c2cccc(F)c2CN1[C@H]1CCCNC1` the Kd [1] was > 1000 µM, the Activity [2] was 32% and the Activity [6] was 8%. The Activity [3] was 31%, the Activity [7] was -1% and the Activity [4] was 22%. It also gave an Activity [5] of 26%.

With `N[C@H]1CC[C@H](N2Cc3cc(F)ccc3C2=O)CC1` the Activity [2] was “inactive”.

`Fc1cccc2c1CC1(CCOCC1)CN2` gave an Activity [2] of 29%, an Activity [6] of 16% and an Activity [7] of 14%. The Activity [4] was 20%.

For `Nc1c(F)cccc1N1CCCCC1`, the Activity [2] was 31%, the Activity [6] was 12% and the Activity [3] was 10%. It also gave an Activity [7] of 7%, an Activity [4] of 17% and an Activity [5] of 17%.

For `FC(F)(F)c1cnn2cc(Br)cnc12`, the Activity [2] was 33%, the Activity [6] was 5% and the Activity [7] was -4%. It also gave an Activity [4] of 22%.

In the case of `Fc1cccc(-c2nnc3ccc(Br)cn23)c1`, the Kd [1] is reported as > 1000 µM, the Activity [2] is reported as 54% and the Activity [6] is reported as 20%. For the same compound, the Activity [3] was 12%, the Activity [7] was 16% and the Activity [4] was 49%.

In the case of `Fc1ccc2[nH]cc(CC3CCOCC3)c2c1`, the Kd [1] is reported as 929 µM, the Kd [8] is reported as 410 µM and the Activity [2] is reported as 28%. It also gave an Activity [6] of 20%, an Activity [7] of 19% and an Activity [4] of 30%.

For `Fc1ccc2c(CC3CCOCC3)c[nH]c2c1`, the Kd [1] was > 1000 µM, the Activity [2] was 36% and the Activity [6] was 23%. For the same compound, the Activity [3] was 25%, the Activity [7] was 22% and the Activity [4] was 24%.

In the case of `CC(C)(C)OC(=O)N1CCC2(CC1)C(=O)Nc1ccc(F)cc12`, the Activity [2] is reported as 39%, the Activity [6] is reported as 15% and the Activity [7] is reported as 13%. It also gave an Activity [4] of 45%.

In the case of `Nc1ccc2nc(-c3ccc(F)cc3)nn2c1`, the Kd [1] is reported as > 1000 µM, the Activity [2] is reported as 43% and the Activity [6] is reported as 24%. It also gave an Activity [7] of 15% and an Activity [4] of 26%.

For `O=C(O)c1ccc2nc(-c3ccccc3F)nn2c1`, the Kd [1] was > 1000 µM, the Activity [2] was 47% and the Activity [6] was 24%. The Activity [3] was 14%, the Activity [7] was 17% and the Activity [4] was 35%. The Activity [5] was 12%.

For `NCc1cn(Cc2ccccc2C(F)(F)F)cn1`, the Kd [1] was > 1000 µM and the Activity [2] was “inactive”.

For `Nc1cnc(Nc2ccc(C(F)(F)F)cc2)nc1`, the Kd [1] was > 1000 µM, the Activity [2] was 40% and the Activity [6] was 5%. It also gave an Activity [3] of 14%, an Activity [7] of 7% and an Activity [4] of 26%.

With `CC(C)(C)OC(=O)N1CCC(CN)(Cc2cccc(C(F)(F)F)c2)CC1` the Kd [1] was > 1000 µM, the Activity [2] was 26% and the Activity [4] was 9%.

With `Fc1ccc2[nH]cc(C3CCOCC3)c2c1` the Kd [1] was > 1000 µM, the Activity [2] was 14% and the Activity [6] was 14%. The Activity [7] was 10%, the Activity [4] was 16% and the Activity [5] was 10%.

In the case of `CC(C)(C)OC(=O)N1CCC(CN)(Cc2ccc(C(F)(F)F)cc2)CC1`, the Activity [2] is reported as 32% and the Activity [4] is reported as 0%.

In the case of `O=C1c2ccc(F)cc2CN1C1CCNCC1`, the Kd [1] is reported as > 1000 µM, the Activity [2] is reported as 13% and the Activity [4] is reported as 7%.
